Results reported in the supplement of paper PMC11061612.

Columns and labels:
Assay in all cases: Bliss excess, mean over the matrix (fraction); higher = more synergy
[1] = tested on: 23132-87 (Gastric Carcinoma)
Procedure, shortened: (§1)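 Cell lines grown in DMEM/F12 or RPMI with 10% FBS were plated in 1536-well plates and held 24 hours at 37°C, 5% CO2 before 72 hours of exposure to two-drug dose matrices, with DMSO typically at 0.2%. CellTiter-Glo 2.0 luminescence gave viability, which was converted to inhibition. Vehicle wells were set to 0 and blank wells to 1. Combination Emax is the second-highest inhibition in the matrix, and Bliss excess is the observed combination effect minus the expected EA + EB − EA·EB, where EA and EB are the single-agent effects.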

A2058 (Melanoma) = tested on: A2058 (Melanoma)
Procedure, shortened: as §1

[2] = tested on: CAL-120 (Breast Carcinoma)
Procedure, shortened: as §1

[3] = tested on: CAL-62 (Thyroid Gland Carcinoma)
Procedure, shortened: as §1

[4] = tested on: GP5d (Colorectal Carcinoma)
Procedure, shortened: as §1

[5] = tested on: HSC-39 (Gastric Carcinoma)
Procedure, shortened: as §1

[6] = tested on: KE-37 (T-Lymphoblastic Leukemia)
Procedure, shortened: as §1

[7] = tested on: L-1236 (Hodgkin's Lymphoma)
Procedure, shortened: as §1

[8] = tested on: LB996-RCC (Kidney Carcinoma)
Procedure, shortened: as §1

[9] = tested on: LK-2 (Squamous Cell Lung Carcinoma)
Procedure, shortened: as §1

[10] = tested on: LXF-289 (Lung Adenocarcinoma)
Procedure, shortened: as §1

[11] = tested on: PSN1 (Pancreatic Carcinoma)
Procedure, shortened: as §1

[12] = tested on: REH (B-Lymphoblastic Leukemia)
Procedure, shortened: as §1

[13] = tested on: RERF-LC-Sq1 (Squamous Cell Lung Carcinoma)
Procedure, shortened: as §1

SF268 (Low Grade Glioma) = tested on: SF268 (Low Grade Glioma)
Procedure, shortened: as §1

[14] = tested on: SU-DHL-10 (B-Cell Non-Hodgkin's Lymphoma)
Procedure, shortened: as §1

[15] = tested on: TE-8 (Esophageal Squamous Cell Carcinoma)
Procedure, shortened: as §1

[16] = tested on: VAL (B-Cell Non-Hodgkin's Lymphoma)
Procedure, shortened: as §1

WM278 (Melanoma) = tested on: WM278 (Melanoma)
Procedure, shortened: as §1

WM793B (Melanoma) = tested on: WM793B (Melanoma)
Procedure, shortened: as §1

Compound | Bliss excess [1] | Bliss excess (A2058 (Melanoma)) | Bliss excess [2] | Bliss excess [3] | Bliss excess [4] | Bliss excess [5] | Bliss excess [6] | Bliss excess [7] | Bliss excess [8] | Bliss excess [9] | Bliss excess [10] | Bliss excess [11] | Bliss excess [12] | Bliss excess [13] | Bliss excess (SF268 (Low Grade Glioma)) | Bliss excess [14] | Bliss excess [15] | Bliss excess [16] | Bliss excess (WM278 (Melanoma)) | Bliss excess (WM793B (Melanoma))
CC1(C)CCC(CN2CCN(c3ccc(C(=O)NS(=O)(=O)c4ccc(NCC5CCOCC5)c([N+](=O)[O-])c4)c(Oc4cnc5[nH]ccc5c4)c3)CC2)=C(c2ccc(Cl)cc2)C1 [Venetoclax] + C[C@@H](Nc1cc(F)cc(F)c1)c1cc(C(=O)N(C)C)cc2c(=O)cc(N3CCOCC3)oc12 [AZD8186] (first compound max 1 µM, 7x7, partner max 3 µM) | -0.036 | -0.0031 | -0.0194 | -0.0173 | -0.0188 | -0.0503 | 0.0385 | -0.0261 | 0.0035 | -0.0234 | -0.0008 | -0.0683 | 0.01 | -0.0242 | -0.0353 | 0.0052 | -0.0522 | 0.0557 | -0.0199 | -0.016
CC1(C)CCC(CN2CCN(c3ccc(C(=O)NS(=O)(=O)c4ccc(NCC5CCOCC5)c([N+](=O)[O-])c4)c(Oc4cnc5[nH]ccc5c4)c3)CC2)=C(c2ccc(Cl)cc2)C1 [Venetoclax] + CCN(CCO)CCCOc1ccc2c(Nc3cc(CC(=O)Nc4cccc(F)c4)[nH]n3)ncnc2c1 [AZD2811] (first compound max 1 µM, 7x7, partner max 1 µM) | -0.0136 | 0.0655 | -0.014 | 0.0363 | -0.0235 | 0.0077 | -0.0266 | -0.0197 | -0.0133 | 0.0197 | -0.0678 | -0.0478 | 0.18 | 0.0197 | 0.0342 | -0.0844 | 0.0482 | 0.0158 | -0.0119 | 0.0206
C[C@@H]1COCCN1c1cc(C2([S@](C)(=N)=O)CC2)nc(-c2ccnc3[nH]ccc23)n1 [AZD6738] + O=C(c1cc(Cc2n[nH]c(=O)c3ccccc23)ccc1F)N1CCN(C(=O)C2CC2)CC1 [Olaparib] (first compound max 10 µM, 7x7, partner max 10 µM) | 0.0507 | 0.0033 | 0.0364 | 0.0428 | -0.0092 | 0.025 | 0.0288 | -0.0033 | 0.0143 | 0.0091 | -0.0371 | -0.0122 | 0.0021 | -0.0101 | 0.0011 | -0.0235 | -0.0218 | -0.0708 | -0.0488 | -0.0214
COc1cccc(OCCCN)c1-c1cc(Nc2cnc(C#N)cn2)n[nH]1 [Prexasertib] + O=C(c1cc(Cc2n[nH]c(=O)c3ccccc23)ccc1F)N1CCN(C(=O)C2CC2)CC1 [Olaparib] (first compound max 1 µM, 7x7, partner max 10 µM) | -0.0503 | 0.0158 | -0.0552 | -0.0031 | -0.0179 | 0.0127 | 0.0073 | -0.0391 | -0.0145 | -0.0249 | -0.0569 | -0.0146 | -0.0271 | -0.0373 | 0.0208 | 0.0083 | -0.075 | -0.0518 | -0.0732 | -0.0688
CS(=O)(=O)CCNCc1ccc(-c2ccc3ncnc(Nc4ccc(OCc5cccc(F)c5)c(Cl)c4)c3c2)o1 [Lapatinib] + C[C@@H](Oc1cc(-c2cnn(C3CCNCC3)c2)cnc1N)c1c(Cl)ccc(F)c1Cl [Crizotinib] (first compound max 10 µM, 7x7, partner max 10 µM) | 0.0195 | -0.0237 | 0.0084 | -0.0436 | -0.0036 | -0.0117 | 0.0236 | 0.0239 | -0.0196 | 0.0067 | -0.0848 | -0.0443 | -0.0347 | -0.039 | -0.056 | -0.0087 | -0.0294 | -0.0531 | -0.0284 | -0.0192
COc1nnc2ccc(N3CCC(c4ccc(OCCN5CCN(C)C(=O)[C@H]5C)cc4)CC3)nn12 [AZD5153] + C[C@@H]1COCCN1C2=NC(=NC(=C2)C3(CC3)[S@](=N)(=O)C)C4=C5C=CNC5=NC=C4 [AZD6738] (first compound max 1 µM, 7x7, partner max 10 µM) | 0.0394 | 0.0671 | 0.0309 | -0.0082 | -0.0421 | -0.0055 | 0.0286 | -0.0093 | -0.0142 | 0.0491 | 0.0681 | 0.0171 | -0.0059 | 0.0033 | 0.0311 | -0.038 | 0.0176 | -0.111 | 0.0507 | -0.0158
CN(CCO)CC[C@H](CSc1ccccc1)Nc1ccc(S(=O)(=O)NC(=O)c2ccc(N3CCC([C@@H](O)c4ccccc4-c4ccc(Cl)cc4)CC3)cc2)cc1S(=O)(=O)C(F)(F)F [AZD4320] + C=CCn1c(=O)c2cnc(Nc3ccc(N4CCN(C)CC4)cc3)nc2n1-c1cccc(C(C)(C)O)n1 [AZD1775] (first compound max 1 µM, partner max 1 µM) | 0.072 | 0.0066 | 0.0158 | 0.0035 | -0.0238 | 0.0562 | 0.0578 | 0.0006 | 0.0405 | 0.0105 | -0.0252 | -0.0112 | 0.0738 | -0.0021 | 0.0042 | 0.0069 | 0.0378 | -0.0211 | 0.0846 | -0.0248
Cc1c2c(nn1C)CSCc1cc(n(C)n1)CSc1cc(c3ccccc3c1)OCCCc1c(C(=O)O)n(C)c3c-2c(Cl)ccc13 [AZD5991] + C[C@@H]1COCCN1C2=NC(=NC(=C2)C3(CC3)[S@](=N)(=O)C)C4=C5C=CNC5=NC=C4 [AZD6738] (first compound max 1 µM, 7x7, partner max 10 µM) | -0.009 | 0.0756 | 0.0621 | 0.0278 | 0.002 | -0.0026 | 0.0338 | 0.104 | 0.0301 | 0.0146 | 0.0667 | -0.0143 | -0.0519 | 0.0273 | 0.0188 | -0.0128 | 0.0197 | -0.0898 | 0.0307 | 0.0503
COc1cccc(OCCCN)c1-c1cc(Nc2cnc(C#N)cn2)n[nH]1 [Prexasertib] + CN(C)CCCOc1ccc(-c2ccc3ncc4c(c3c2)n(C2CCOCC2)c(=O)n4C)cn1 [AZD0156] (first compound max 1 µM, 7x7, partner max 1 µM) | -0.0009 | 0.007 | 0.0088 | -0.0364 | 0.0215 | -0.0196 | -0.0022 | -0.0649 | 0.0028 | -0.0181 | 0.0113 | -0.0038 | 0.0171 | -0.0209 | 0.0592 | -0.049 | -0.0033 | -0.0162 | 0.0128 | -0.0265
C=CCn1c(=O)c2cnc(Nc3ccc(N4CCN(C)CC4)cc3)nc2n1-c1cccc(C(C)(C)O)n1 [AZD1775] + C[C@@H]1COCCN1C2=NC(=NC(=C2)C3(CC3)[S@](=N)(=O)C)C4=C5C=CNC5=NC=C4 [AZD6738] (first compound max 1 µM, partner max 10 µM) | 0.083 | 0.0553 | 0.0021 | -0.061 | 0.0418 | 0.0459 | 0.0552 | -0.032 | 0.011 | -0.0086 | 0.0266 | -0.0188 | 0.0406 | 0.0211 | 0.0337 | 0.0505 | 0.0126 | 0.0239 | -0.0058 | -0.034
Cc1cc2ncnn2cc1Nc1ncc2c(n1)n(C1CCOCC1)c(=O)n2C [AZD7648] + O=C(c1cc(Cc2n[nH]c(=O)c3ccccc23)ccc1F)N1CCN(C(=O)C2CC2)CC1 [Olaparib] (first compound max 10 µM, 7x7, partner max 10 µM) | 0.003 | -0.0319 | -0.0322 | -0.03 | 0.0009 | -0.0083 | 0.0309 | -0.0394 | -0.0152 | -0.0584 | -0.0504 | -0.0315 | -0.0373 | -0.0095 | -0.0274 | -0.0164 | -0.0413 | 0.0295 | -0.0309 | -0.0136
COc1cc2c(cc1OCCCCCOc1cc3c(cc1OC)C(=O)N1C=C(C)C[C@H]1C=N3)N=C[C@@H]1CC(C)=CN1C2=O [SG3199] + O=C(c1cc(Cc2n[nH]c(=O)c3ccccc23)ccc1F)N1CCN(C(=O)C2CC2)CC1 [Olaparib] (first compound max 0.001 µM, 7x7, partner max 10 µM) | 0.0217 | -0.0172 | -0.0329 | -0.0342 | -0.0206 | -0.0067 | 0.0055 | -0.0387 | 0.0077 | -0.0137 | -0.0358 | -0.0371 | -0.0099 | 0.0049 | -0.0297 | -0.0177 | -0.049 | -0.0069 | -0.0299 | -0.0198
CN(CCO)CC[C@H](CSc1ccccc1)Nc1ccc(S(=O)(=O)NC(=O)c2ccc(N3CCC([C@@H](O)c4ccccc4-c4ccc(Cl)cc4)CC3)cc2)cc1S(=O)(=O)C(F)(F)F [AZD4320] + C[C@@H](Nc1cc(F)cc(F)c1)c1cc(C(=O)N(C)C)cc2c(=O)cc(N3CCOCC3)oc12 [AZD8186] (first compound max 1 µM, 7x7, partner max 3 µM) | -0.031 | 0.0157 | 0.0037 | 0.046 | -0.0378 | 0.0229 | 0.0866 | 0.0082 | 0.0394 | -0.0056 | -0.0351 | -0.0651 | 0.0353 | -0.0169 | 0.014 | 0.0092 | 0.008 | 0.0137 | 0.035 | 0.0434
Cc1cc2ncnn2cc1Nc1ncc2c(n1)n(C1CCOCC1)c(=O)n2C [AZD7648] + CN(C)CCCOc1ccc(-c2ccc3ncc4c(c3c2)n(C2CCOCC2)c(=O)n4C)cn1 [AZD0156] (first compound max 10 µM, 7x7, partner max 1 µM) | -0.0108 | -0.001 | -0.0197 | 0.0145 | -0.0119 | -0.036 | 0.0492 | 0.0025 | -0.0542 | -0.0036 | 0.034 | -0.0413 | -0.113 | 0.0114 | 0.0098 | 0.001 | -0.0453 | -0.0921 | -0.0295 | -0.029
